Measurements as given in US20230158068A1 (priority 2020, published 2023).

Experiments:
U937 cells [1] = test: Morphology of U937 cells with exposure to PMA; type: cell-based, human; settings: 72 h, 100 nM PMA differentiation protocol
Protocol: FIG. 5 illustrates the morphology of U937 cells with exposure to PMA. U937 cells were cultured on chamber slides with medium supplemented with either 0 nM, 5 nM or 100 nM PMA and incubated for 24 h, 48 h, 72 h and 96 h followed by a 24 h recovery phase in fresh medium. Non-adherent PMA naive cells required centrifuge preparation. Primary human alveolar macrophages were harvested for morphological comparison. The cells were photographed at ×400 magnification with an inverted light microscope. (50 um scale bar).

U937 cells [2] = test: Phagocytic activity of PMA treated U937 cells; type: cell-based, human; settings: 72 h, 100 nM PMA differentiation protocol
Text: FIG. 4 illustrates the phagocytic activity of PMA treated U937 cells and primary alveolar macrophages (pAM). Percentage of phagocytic cells (mean±SEM) from PMA treated U937 cells. (n=9) for each time point for U937 cells and n=3 for primary cells.

U937 cells [3] = test: CD marker expression in PMA treated U937 cells (flow cytometry); type: cell-based, human
Protocol: Human monocytic U937 cells derived from pleural effusion were seeded at 5×10^5 cells/mL in a 24 well plate or on the underside of a culture insert with 3.25×10^5 cells per well with 100 nM phorbol 12-myristate 13-acetate (PMA) (dissolved in DMSO; <1% v/v) in complete RPMI medium (10% v/v FBS, 1% v/v penicillin-streptomycin, 2 mM L-glutamine). Cells were incubated for 72 h at 37° C., 5% v/v CO2 in a humidified incubator to differentiate the cells to mature macrophages. Following PMA incubation, media was replaced with fresh CCM and incubated for a further 24 h rest period. After the 24 h rest phase, U937/MØ were ready for co-culture assembly. U937/MØ cells were prepared in line with when epithelial cells were ready, i.e. day 5 for A549 and day 10 for hAELVi cells.
FIG. 3 illustrates the expression profiles of selected CD markers in PMA treated U937 cells and primary alveolar macrophages (pAM). CD markers are: (A) CD 11a, (B) CD 11b, (C) CD 14, (D) CD 36 and (E) CD 206. U937 cells treated with (0 nM, 5 nM, and 100 nM) PMA for 24 h to-96 h followed by a 24 h rest period in fresh culture medium. Expression of CD markers was measured by flow cytometry and are presented as median fluorescent intensity (MFI±SEM). […]

U937 cells [4] = test: Long-term proliferation of PMA treated U937 cells (Guava ViaCount assay); type: cell-based, human; settings: 100 nM PMA
Protocol: FIG. 6 illustrates the long-term proliferation of PMA treated U937 cells. […] Cell proliferation was assessed using Guava ViaCount assay via flow cytometry for 10,000 events. Results shown are representative for two repeated experiments performed in triplicate. Viable cells/mL are shown as mean±SD.

[5] = system: differentiated U937 cells; test: Phospholipidosis accumulation in differentiated U937 cells in co-culture set ups (HCS LipidTOX Green); type: cell-based, human; settings: 10 μM amiodarone; differentiated U937 cells in three co-culture set ups
Protocol: The phospholipid accumulation was assessed using HCS LipidTOX™ Green phospholipidosis detection reagent. Phospholipidosis accumulation was detected in differentiated U937 cells cultured in LLI in three different co-culture set ups: A) Type I/II cells cultured in mixed 10:1 ratio in apical compartment, differentiated U937 (lilac) cells cultured at the basolateral compartment B) Type I/II cells cultured as a layers in a 10:1 ratio in apical compartment, differentiated U937 cells cultured at the basolateral compartment (blue), C) Type I cells cultured in the apical compartment and differentiated U937 cells were seeded on the underside of Transwell® inserts (green). […] A total of 5000 events were acquired on the flow cytometer.

[6] = system: T I model (hAELVi + MØ), T II model (A549 + MØ); test: LDH release from co-cultures with LPS (cell health); type: cell-based, human; settings: 10 ng/mL LPS, 24 h; both co-culture models
Protocol: FIGS. 25A and 25B illustrate the comparison of mono-culture and co-culture construction on cell health. Percentage of maximum LDH released into supernatants from cell populations normalised to 0.1% v/v Triton-X 100 positive control. LDH released from co-cultures: (T I) hAELVi and (T II) A549 cells in co-culture with MØ cells were assessed (A). MØ cells cultured with hAELVi cells (T I model) or A549 cells (T II model) were exposed to 10 ng/mL LPS (+LPS) for 24 h (B). A one way ANOVA was used to determine significance for each treatment group and Tukey's multiple comparison post hoc test employed when* p<0.05, p<0.001 Data shown represent n=6 data points±SD of three independent cell model experiments.

[7] = system: differentiated U937 cells (MØ); test: Phagocytic activity of differentiated U937 cells in mono-culture and co-cultures in the presence of LPS; type: cell-based, human; settings: 10 ng/mL LPS, 24 h; both co-culture systems
Protocol: FIG. 23 illustrates a comparison of macrophages in mono-culture and co-cultures phagocytosis of microspheres. Differentiated U937 cells (MØ), MØ cells cultured with hAELVi cells (T I model) or A549 cells (T II model) exposed to 10 ng/mL LPS (+LPS) for 24 h. Phagocytosis assays were performed after 2 h incubation with 1.0 μm FluoSpheres™ Carboxylate-Modified microspheres using fluorescent microscopy. Images at 40× magnification. Scale bar is 100 μm.
FIGS. 24A and 24B illustrate phagocytic activity of differentiated U937 cells (MØ) in mono-culture and co-cultures in the presence of LPS. MØ cells cultured with hAELVi cells (T I model) or A549 cells (T II model) exposed to 10 ng/mL LPS (+LPS) for 24 h. Phagocytosis assays were performed after 2 h incubation with 1.0 μm FluoSpheres™ Carboxylate-Modified microspheres using flow cytometry. Cells were gated for 1000 events (A) per sample. […] Percentage of cells above the gated (R3) threshold (B) of mono and co-cultures. A one way ANOVA was used to determine significance for each treatment group and Tukey's multiple comparison post hoc test employed when* p<0.05, *** : p<0.0001 where n=3 independent models.

[8] = system: differentiated U937 cells (MØ), T I model, T II model; test: CD marker expression in LPS stimulated alveoli models (flow cytometry); type: cell-based, human; settings: 10 ng/mL LPS, 24 h
Protocol: FIG. 17 illustrates CD marker expressions in LPS stimulated and non-stimulated alveoli models. Differentiated U937 cells (MØ), MØ cells cultured with hAELVi cells (T I model) or A549 cells (T II model) exposed to 10 ng/mL LPS (+LPS) for 24 h. Direct immunofluorescent staining assays for CD 11 b (A &C) and CD 36 (B & D) surface markers were performed using flow cytometry. A total of 5000 gated events were collected for each sample. MFI (median fluorescent intensity) data shown as mean±sd (n=9) for 3 independent models for Dunnett's post hoc test after one-way ANOVA where *#:p<0.005, *** :p<0.0001 vs MØ and MØ+LPS respectively.

co-culture models = test: IL-8 secretion of co-culture models after LPS (ELISA); type: cell-based, human; settings: 100 ng/ml LPS
Protocol: FIG. 36 illustrates extent of immune response using IL-8 secretion. […] IL-8 levels detected from supernatants of co-culture models cultured under LLI/ALI post exposure to 100 ng/ml LPS. The IL-8 levels were quantified using ELISA assay. […] N=4, * indicates (p<0.05).

[9] = system: hAELVi and A549 cells in co-culture with MØ cells; test: TEER of alveolar epithelial cells in co-culture with LPS; type: cell-based, human; settings: 10 ng/mL LPS, 24 h
Protocol: FIGS. 26A and 26B illustrate the impact of LPS on barrier properties of alveolar epithelial cells in co-culture. TEER measurements of (T I) hAELVi and (T II) A549 cells in co-culture with MØ cells. MØ cells cultured with hAELVi cells (T I model) or A549 cells (T II model) were exposed to 10 ng/mL LPS (+LPS) for 24 h. A one-way ANOVA was used to determine significance for each treatment group. Data shown represent n=3 of three independent cell model experiments (p>0.05).

[10] = system: MØ, T I model, T II model; test: Human cytokine profile of mono-culture and co-culture models in LPS (array membranes); type: cell-based; settings: LPS 100 ng/mL, 24 h
Protocol: FIG. 18 illustrates human cytokine profile of lower airway for ALI cell models. Detection of spots on array membranes from supernatant collect from mono-culture and co-cultures of: differentiated U937 cells (MØ) with LPS (MØ+LPS), hAELVi TI cells (T I), A549 TII cells (T II), type I co-culture model: hAELVi and MØ (T I model) with LPS (T I model+LPS), type II co-culture model: A549 and MØ (T II model) with LPS (T II model+LPS). Models were untreated or stimulated with 100 ng/mL LPS for 24 h. Controls are shown as positive (green) and negative (red). Data represents four independent Transwell® inserts. […] The data analysed in more detail in below figures.
FIG. 21 illustrates human cytokine profile of lower airway; T I &T I I models in the presence of LPS. […] Data represents mean signal intensity (AU) of each protein spot from the blot detected using chemiluminescence imaging and quantified using imageJ software for four independent Transwell® inserts±sd. […]
FIG. 22 illustrates human cytokine profile of lower airway of mono-culture and co-culture models in LPS. […] Data analysed by two-way ANOVA with Bonferroni post hoc test of non-stimulated cells vs LPS stimulation. […]

For `CCCCCCCCCCCCCC(=O)O[C@@H]1[C@@H](C)[C@@]2(O)[C@@H](C=C(CO)C[C@]3(O)C(=O)C(C)=C[C@@H]23)[C@@H]2C(C)(C)[C@]12OC(C)=O` [PMA, phorbol-12-myristate-13-acetate], the cell morphology (U937 cells [1]) was “most similar morphology to primary human alveolar macrophages”, the phagocytic functionality (U937 cells [2]) was “same phagocytic functionality of primary human alveolar macrophages” and the “expression of CD36 and CD206 (M2 markers)” value (U937 cells [3]; PMA treated U937 cells) was “low”. For the same compound, the “expression of cell surface markers selected to identify an alveolar macrophage phenotype (CD 11a, CD 11b, CD 14)” value (U937 cells [3]; U937 cells, 100 nM PMA, 72 h, 24 h rest, compared with primary human alveolar macrophages) was “optimally expressed”, the cell proliferation (U937 cells [4]; 24 h exposure) was “reduced” and the cell proliferation (U937 cells [4]; 96 h exposure) was “no”.
For `CCCCc1oc2ccccc2c1C(=O)c1cc(I)c(OCCN(CC)CC)c(I)c1` [amiodarone], the phospholipidosis accumulation [5] was “detected”.
For lipopolysaccharide [LPS], the “cell viability (LDH release)” value [6] was “not adversely affected”, the “ability to phagocytose (1.0 μm microspheres)” value [7] was “retain their ability to phagocytose” and the “macrophage activation (CD11 b expression, absence of CD36 expression)” value [8] was “likely to drive the macrophages to M1 type activation”. The IL-8 secretion (co-culture models; all models) was “significantly increased”, the IL-8 secretion (co-culture models; combination type I and II epithelial models) was “significantly elevated” and the “barrier properties of the alveolar type I epithelial cells (TEER)” value [9] was “not compromised”. The “cytokine markers (signal intensity on array)” value [10] was “elevated”.
